As usually defined, the pIC50 is the negative decadic logarithm of the IC50, by convention in mol/L.

This is an account of results in patent publication US9783505B2, “Substituted diaminopyrimidyl compounds, compositions thereof, and methods of treatment therewith” (Signal Pharmaceuticals, LLC, priority 2013, dated 2017).

pIC50: −log10 of the molar value. Like-named read-outs stand apart in the source and are kept apart here.

The assay addresses T1, His-PKC-theta (Homo sapiens, UniProt Q04759).
T1 construct: His; purchased Invitrogen
Briefly: PKC-theta Assay (384-well time resolved fluorescence, IMAP TR-FRET). The format is biochemical. The conditions noted are these: read-out: Act. Level (IC50 in the PKC-theta Assay). A digest of the protocol:
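Fam-labeled S6-derived peptide (200 nM) and 10 μM ATP were reacted with 142 pM enzyme for 2 h at room temperature in HEPES pH 7.6 buffer with MgCl2, DTT, Triton X-100, BSA and EDTA. The reaction was stopped with IMAP progressive binding reagent plus Tb donor, incubated overnight, then TR-FRET read.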
On the technique in general: Time-resolved FRET reads energy transfer from a long-lived donor to a nearby acceptor.

T1 sequence (Q04759 whole entry): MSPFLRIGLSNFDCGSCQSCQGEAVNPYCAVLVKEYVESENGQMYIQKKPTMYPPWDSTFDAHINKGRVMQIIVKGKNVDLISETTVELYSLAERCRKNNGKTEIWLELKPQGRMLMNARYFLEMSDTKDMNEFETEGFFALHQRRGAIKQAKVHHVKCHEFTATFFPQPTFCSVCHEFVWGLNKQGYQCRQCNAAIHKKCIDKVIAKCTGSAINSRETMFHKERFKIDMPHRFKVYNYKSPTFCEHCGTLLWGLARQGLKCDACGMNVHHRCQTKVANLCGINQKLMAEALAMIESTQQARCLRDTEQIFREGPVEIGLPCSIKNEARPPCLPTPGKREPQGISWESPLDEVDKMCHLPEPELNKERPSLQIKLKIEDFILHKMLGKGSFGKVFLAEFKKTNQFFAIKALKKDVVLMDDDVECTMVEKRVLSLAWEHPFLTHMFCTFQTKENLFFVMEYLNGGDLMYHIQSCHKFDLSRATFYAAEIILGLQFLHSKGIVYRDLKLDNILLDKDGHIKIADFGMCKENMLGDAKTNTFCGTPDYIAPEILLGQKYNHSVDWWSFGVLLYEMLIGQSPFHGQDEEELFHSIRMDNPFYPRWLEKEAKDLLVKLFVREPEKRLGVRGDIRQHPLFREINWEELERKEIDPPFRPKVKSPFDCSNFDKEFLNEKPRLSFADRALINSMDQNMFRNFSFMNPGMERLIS

As for `CC1(C)C(O)C[C@@H]1Nc1nc(NCc2cncnc2OCCC(F)(F)F)ncc1C(F)(F)F` (stereo partly shown) [Cmpd 85], the pIC50 is greater than 7.00.
On to `COc1ccccc1CCNc1ncc(C#N)c(N[C@@H]2CC[C@H](O)C(C)(C)C2)n1` [Cmpd 30], for which the pIC50 (Table 2) is 6.10 to 7.00.
Still for that read-out and setting: the figure for `N#Cc1ccc(CCNc2ncc(C#N)c(N[C@H]3C[C@@H](C(N)=O)C3)n2)cc1` [Cmpd 192] is 5.00 to 5.70.
With `CC(C)(F)c1ncncc1CNc1ncc(C#N)c(N[C@H]2C[C@@H](CO)C2(C)C)n1` [Cmpd 109], the pIC50 was 6.10 to 7.00.
On the same count and under the same terms, the figure for `N#Cc1cnc(NCc2cncnc2-c2ccccc2)nc1N[C@H]1CC[C@@H](O)CC1` [Cmpd 52] is greater than 7.00.
With `CC1(C)C[C@H](Nc2nc(NCC(O)c3ccc(O)cc3)ncc2C#N)CC[C@@H]1O` (stereo partly shown) [Cmpd 80], the pIC50 (Table 2) is 5.00 to 5.70.
As for `CC1(C)[C@@H](O)C[C@H]1Nc1nc(NCc2cncnc2-c2ccc(F)cc2)ncc1C(F)(F)F` [Cmpd 70], the pIC50 is greater than 7.00.
With `CCc1ncncc1CNc1ncc(C#N)c(NC2CC(C)(O)C2(C)C)n1` (stereo not shown) [Cmpd 135], the pIC50 is 6.10 to 7.00.
As for `Cc1nnnn1-c1cccc(CCNc2ncc(C#N)c(N[C@@H]3CC[C@H](O)C(C)(C)C3)n2)c1` [Cmpd 169], for the setting “Table 2”, the pIC50 was 6.10 to 7.00.
For the molecule `CC1(C)[C@@H](Nc2nc(NCc3cncnc3-c3ccc(F)cc3)ncc2C#N)C[C@@H]1O` [Cmpd 111], the pIC50 was 6.10 to 7.00.
For the molecule `COc1cc(CCNc2ncc(C#N)c(N[C@@H]3CC[C@H](O)C(C)(C)C3)n2)ccc1O` [Cmpd 95], where the note is “Table 2”, the pIC50 was 6.10 to 7.00.
As for `CC1(C)C(Nc2nc(NCc3cncnc3OCCC(F)(F)F)ncc2C#N)C[C@H]1O` (stereo partly shown) [Cmpd 77], the pIC50 is greater than 7.00.
Take `CC1(C)[C@@H](C(N)=O)C[C@H]1Nc1nc(NCCc2ccc(C#N)cc2)ncc1C#N` [Cmpd 194]: for the setting “Table 2”, the pIC50 was 6.10 to 7.00.
As for `CC(F)(F)COc1ncncc1CNc1ncc(C(F)(F)F)c(N[C@@H]2CC[C@H](O)C(C)(C)C2)n1` [Cmpd 29], the pIC50 is greater than 7.00.
Regarding `CC1(C)[C@@H](O)C[C@H]1Nc1nc(NCCc2ccc(C#N)c(OC(F)(F)F)c2)ncc1C#N` [Cmpd 143], the pIC50 (Table 2) was 5.70 to 6.10.
For the molecule `CC1(C)C[C@H](Nc2nc(NCCc3ccc(-n4ccnc4)c(Cl)c3)ncc2C#N)CC[C@@H]1O` [Cmpd 180], under “Table 2”, the pIC50 was greater than 7.00.
For `COc1cc(CCNc2ncc(C#N)c(N[C@@H]3C[C@H](O)C3(C)C)n2)ccc1O` [Cmpd 104], under “Table 2”, the pIC50 is 5.00 to 5.70.
In the case of `CC1(C)[C@@H](O)C[C@H]1Nc1nc(NCCc2ccc(C#N)c(C(F)(F)F)c2)ncc1C#N` [Cmpd 141], the pIC50 (Table 2) was 6.10 to 7.00.
On the same count and under the same terms, the figure for `CN1CCN(S(=O)(=O)c2ccc(CCNc3ncc(C#N)c(N[C@@H]4CC[C@H](O)C(C)(C)C4)n3)cc2)CC1` [Cmpd 179] is 6.10 to 7.00; for `CC1(C)[C@@H](O)C[C@H]1Nc1nc(NCCc2ccc(-n3cccn3)cc2)ncc1C#N` [Cmpd 48] it is greater than 7.00.
The same measure, in the same setting: the figure for `Cc1ncc(-c2ccc(CCNc3ncc(C#N)c(N[C@@H]4CC[C@H](O)C(C)(C)C4)n3)cc2)s1` [Cmpd 64] is greater than 7.00.
Consider `CNC(=O)[C@H]1CC[C@@H](Nc2nc(NCc3cnccc3C(F)(F)F)ncc2C#N)CC1` [Cmpd 68], for which the pIC50 is greater than 7.00.
On to `CC1(C)[C@@H](O)C[C@H]1Nc1nc(NCCc2ccccn2)ncc1C#N` [Cmpd 187], for which the pIC50 was 5.00 to 5.70.
As for `CC1(C)[C@@H](O)C[C@H]1Nc1nc(NCCc2ccc(C#N)c(F)c2)ncc1C#N` [Cmpd 147], the pIC50 (Table 2) is 6.10 to 7.00.
On to `CNC(=O)[C@H]1CC[C@@H](Nc2nc(NCc3cnccc3C(F)(F)F)ncc2C(F)(F)F)CC1` [Cmpd 17], for which the pIC50 is greater than 7.00.
Consider `CC1(C)C[C@H](Nc2nc(NCCc3ccc(C#N)c(F)c3)ncc2C#N)CC[C@@H]1O` [Cmpd 148], for which the pIC50 (Table 2) is 6.10 to 7.00.
For `CC1(C)[C@@H](O)C[C@H]1Nc1nc(NCCc2ccc(N3CCCCC3)cc2)ncc1C#N` [Cmpd 114], the pIC50 (Table 2) is 5.70 to 6.10.
In the case of `CC1(C)[C@@H](O)C[C@H]1Nc1nc(NCCc2cccc3ccccc23)ncc1C#N` [Cmpd 128], the pIC50 (Table 2) is 6.10 to 7.00.
For `CC1(C)[C@@H](O)C[C@H]1Nc1nc(NCc2c[n+]([O-])ccc2C(F)(F)F)ncc1C(F)(F)F` [Cmpd 41], the pIC50 was greater than 7.00.
For the molecule `Cc1ncc(-c2ccc(CCNc3ncc(C#N)c(N[C@@H]4C[C@H](O)C4(C)C)n3)cc2)s1` [Cmpd 124], the pIC50 (Table 2) is 6.10 to 7.00.
On to `CCOc1ncncc1CNc1ncc(C#N)c(N[C@@H]2CC[C@H](O)C(C)(C)C2)n1` [Cmpd 37], for which the pIC50 was greater than 7.00.
With `CC1(C)C[C@H](Nc2nc(NCCc3ccc(OCCF)cc3)ncc2C#N)CC[C@@H]1O` [Cmpd 171], the pIC50 (Table 2) is greater than 7.00.
As for `CC1(C)C[C@H](Nc2nc(NCc3cncnc3OCCF)ncc2C#N)CC[C@@H]1O` [Cmpd 21], the negative-log IC50 (pIC50) is greater than 7.00.
Regarding `CC1(C)[C@@H](Nc2nc(NCCc3cccc(Cl)c3)ncc2C#N)C[C@@H]1N` [Cmpd 157], the negative-log IC50 (pIC50) (Table 2) is 6.10 to 7.00.
On the same count and under the same terms, the figure for `CC1(C)C[C@H](Nc2nc(NCCc3cccc(S(N)(=O)=O)c3)ncc2C#N)CC[C@@H]1O` [Cmpd 172] is 6.10 to 7.00.
Take `CCc1ncncc1CNc1ncc(C#N)c(N[C@@H]2C[C@H](O)C2(C)C)n1` [Cmpd 67]: the pIC50 is greater than 7.00.
In the case of `CC(C)(O)[C@H]1CC[C@H](Nc2nc(NCc3cnccc3C(F)(F)F)ncc2C#N)CC1` [Cmpd 101], the pIC50 was 6.10 to 7.00.
With `CC(C)c1ncncc1CNc1ncc(C#N)c(N[C@@H]2C[C@H](CO)C2(C)C)n1` [Cmpd 54], the pIC50 is greater than 7.00.
As to `CCc1ncncc1CNc1ncc(C#N)c(N[C@@H]2C[C@@H](O)C2(C)C)n1` [Cmpd 128], the pIC50 was 6.10 to 7.00.
Consider `CC1(C)[C@@H](Nc2nc(NCc3c[n+]([O-])ccc3C(F)(F)F)ncc2C(F)(F)F)C[C@@H]1O` [Cmpd 139], for which the pIC50 was 6.10 to 7.00.
On to `CC1(C)[C@H](O)C[C@@H]1Nc1nc(NCc2cncnc2-c2ccc(F)cc2)ncc1C(F)(F)F` [Cmpd 97], for which the pIC50 was 6.10 to 7.00.
Turning to `CC1(C)C[C@H](Nc2nc(NCc3cncnc3OCCC(F)(F)F)ncc2C(F)(F)F)CC[C@@H]1O` [Cmpd 8], the pIC50 is greater than 7.00.
As to `CC1(C)C[C@H](Nc2nc(NCCc3cc(Cl)ccc3S(N)(=O)=O)ncc2C#N)CC[C@@H]1O` [Cmpd 193], the pIC50 (Table 2) is 6.10 to 7.00.
Same read-out and setting: the figure for `Cc1nnnn1-c1ccccc1CCNc1ncc(C#N)c(N[C@@H]2CC[C@H](O)C(C)(C)C2)n1` [Cmpd 168] is 5.00 to 5.70.
For `CC1(C)[C@@H](O)C[C@H]1Nc1nc(NCc2cncnc2OCCC(F)(F)F)ncc1C(F)(F)F` [Cmpd 2], the pIC50 was greater than 7.00.
As for `N#Cc1cnc(NCCc2cccc(Cl)c2)nc1N[C@H]1CC[C@H](O)CC1` [Cmpd 69], where the note is “Table 2”, the pIC50 was 5.70 to 6.10.
For the molecule `CC1(C)C(O)C[C@@H]1Nc1nc(NCc2cncnc2OCCC(F)(F)F)ncc1C#N` (stereo partly shown) [Cmpd 107], the pIC50 is 6.10 to 7.00.
Consider `N#Cc1cnc(NCCc2ncccc2C(F)(F)F)nc1N[C@H]1CC[C@@H](O)CC1` [Cmpd 151], for which the pIC50 is 5.00 to 5.70.
Consider `CC1(C)C[C@H](Nc2nc(NCCc3ccc(-n4cccn4)c(Cl)c3)ncc2C#N)CC[C@@H]1O` [Cmpd 181], for which, where the note is “Table 2”, the pIC50 was greater than 7.00.
As for `CC1(C)C[C@H](Nc2nc(NCCc3c[nH]c4ccc(F)cc34)ncc2C#N)CC[C@@H]1O` [Cmpd 181], the pIC50 is 6.10 to 7.00.
The same measure, in the same setting: the figure for `Cc1[nH]c2c(F)cc(F)cc2c1CCNc1ncc(C#N)c(N[C@@H]2CC[C@H](O)C(C)(C)C2)n1` [Cmpd 167] is 6.10 to 7.00.
With `CC(F)(F)COc1ccccc1CCNc1ncc(C#N)c(N[C@@H]2CC[C@H](O)C(C)(C)C2)n1` [Cmpd 152], for the setting “Table 2”, the pIC50 was 5.70 to 6.10.
On to `CC1(C)C[C@H](Nc2nc(NCCc3ccc(O)cc3)ncc2C#N)CC[C@@H]1O` [Cmpd 29], for which, where the note is “Table 2”, the pIC50 was greater than 7.00.
Same read-out and setting: the figure for `CC1(C)[C@@H](O)C[C@H]1Nc1nc(NCCc2ccc(Cl)c(Cl)c2)ncc1C#N` [Cmpd 107] is 6.10 to 7.00.
For the molecule `COC1CC(Nc2nc(NCc3cnccc3C(F)(F)F)ncc2C(F)(F)F)C1(C)C` (stereo not shown) [Cmpd 102], the pIC50 was 6.10 to 7.00.
As to `CCc1ccc2c(c1)C(CCNc1ncc(C#N)c(N[C@H]3CC[C@@H](C(N)=O)CC3)n1)C(=O)N2` (stereo partly shown) [Cmpd 180], the pIC50 was greater than 7.00.
As for `CC(F)(F)COc1ncncc1CNc1ncc(C#N)c(N[C@H]2C[C@H](O)C2(C)C)n1` [Cmpd 121], the pIC50 is 6.10 to 7.00.
In the case of `CC1(C)[C@@H](O)C[C@H]1Nc1nc(NCCc2ccc(C#N)c(Cl)c2)ncc1C#N` [Cmpd 142], the pIC50 (Table 2) was 6.10 to 7.00.
Regarding `O[C@H]1C[C@H](Nc2nc(NCc3cnccc3C(F)(F)F)ncc2C(F)(F)F)C1` [Cmpd 94], the pIC50 is 6.10 to 7.00.
Turning to `CC1(C)[C@@H](O)C[C@H]1Nc1nc(NCCc2ccccc2C(F)(F)F)ncc1C#N` [Cmpd 44], the pIC50 (Table 2) was 6.10 to 7.00.
`CC1(C)[C@H](CO)C[C@@H]1Nc1nc(NCc2c[n+]([O-])ccc2C(F)(F)F)ncc1C#N` [Cmpd 145]: the pIC50 is 5.70 to 6.10.
Consider `CC1(C)C[C@@H](O)CC[C@H]1Nc1nc(NCCc2cccc(Cl)c2)ncc1C#N` [Cmpd 190], for which, where the note is “Table 2”, the pIC50 is greater than 7.00.
On to `CC1(C)[C@@H](Nc2nc(NCc3cnccc3C(F)(F)F)ncc2C(F)(F)F)C[C@@H]1O` [Cmpd 143], for which the pIC50 was 5.70 to 6.10.
In the case of `CC1(C)[C@@H](CO)C[C@H]1Nc1nc(NCc2cnccc2C(F)(F)F)ncc1C#N` [Cmpd 64], the pIC50 is greater than 7.00.
On to `COc1ccc(CCNc2ncc(C#N)c(N[C@@H]3CC[C@H](O)C(C)(C)C3)n2)cc1` [Cmpd 94], for which the pIC50 (Table 2) is 6.10 to 7.00.
Turning to `N#Cc1cnc(NCCC2C(=O)Nc3ccccc32)nc1N[C@H]1CC[C@@H](C(N)=O)CC1` (stereo partly shown) [Cmpd 179], the pIC50 is greater than 7.00.
For `C[C@]1(O)CC[C@@H](Nc2nc(NCc3cncnc3-c3ccccc3)ncc2C#N)CC1` [Cmpd 84], the pIC50 is greater than 7.00.
Take `COCCOc1ccc(CCNc2ncc(C#N)c(N[C@@H]3C[C@H](O)C3(C)C)n2)cc1` [Cmpd 109]: the pIC50 (Table 2) was 6.10 to 7.00.
As to `CC1(C)C[C@H](Nc2nc(NCCc3ccc(C(N)=O)cc3)ncc2C#N)CC[C@@H]1O` [Cmpd 154], under “Table 2”, the pIC50 is 6.10 to 7.00.
For the molecule `CC1(C)C[C@H](Nc2nc(NCCc3c[nH]c4cc(OC(F)(F)F)ccc34)ncc2C#N)CC[C@@H]1O` [Cmpd 170], the pIC50 is 6.10 to 7.00.
